Results on 10 compounds are retold here after ChEMBL document CHEMBL1201862, “PubChem BioAssay data set” (2004).

Each structure is given as a SMILES string. The source made the active and inactive calls.

A short description of assay [1]: THP-1 cell cytotoxicity, dose response, cytotoxicity control for non-replicating M. tuberculosis project (AID 489025). In kind it is functional.
A further assay in a line: cells. In kind it is functional.
The target of assay [2] is T1, Replicative DNA helicase DnaB (Mycobacterium tuberculosis, UniProt P9WMR3).
T1 sequence (P9WMR3 whole entry): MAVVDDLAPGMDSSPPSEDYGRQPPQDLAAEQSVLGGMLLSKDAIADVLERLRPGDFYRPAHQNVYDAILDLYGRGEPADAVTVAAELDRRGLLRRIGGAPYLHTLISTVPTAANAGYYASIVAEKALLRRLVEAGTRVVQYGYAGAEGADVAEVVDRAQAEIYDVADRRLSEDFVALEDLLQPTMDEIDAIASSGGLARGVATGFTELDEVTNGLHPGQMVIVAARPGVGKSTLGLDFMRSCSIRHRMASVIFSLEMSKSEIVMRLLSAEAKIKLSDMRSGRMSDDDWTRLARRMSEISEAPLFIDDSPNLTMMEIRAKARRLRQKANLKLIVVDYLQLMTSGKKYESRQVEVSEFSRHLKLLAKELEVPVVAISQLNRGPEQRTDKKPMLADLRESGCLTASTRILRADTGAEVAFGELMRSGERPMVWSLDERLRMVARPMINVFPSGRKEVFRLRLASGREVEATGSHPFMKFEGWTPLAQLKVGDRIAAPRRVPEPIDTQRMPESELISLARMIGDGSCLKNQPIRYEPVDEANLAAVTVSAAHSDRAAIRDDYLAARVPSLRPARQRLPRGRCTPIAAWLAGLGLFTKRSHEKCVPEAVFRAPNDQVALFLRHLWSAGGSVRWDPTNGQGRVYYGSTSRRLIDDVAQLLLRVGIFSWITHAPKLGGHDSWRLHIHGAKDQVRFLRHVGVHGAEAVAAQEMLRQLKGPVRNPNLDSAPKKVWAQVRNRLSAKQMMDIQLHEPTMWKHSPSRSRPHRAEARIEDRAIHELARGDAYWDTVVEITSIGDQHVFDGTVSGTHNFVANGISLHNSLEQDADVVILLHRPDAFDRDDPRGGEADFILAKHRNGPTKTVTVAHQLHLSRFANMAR
Briefly: DnaB intein splicing inhibitors, dose response, biochemical, cell-free fluorescence (AID 449749). In kind it is functional.

The next assay has as its target T2, Protein RecA (Mycobacterium tuberculosis, UniProt P9WHJ3).
T2 sequence (P9WHJ3 whole entry): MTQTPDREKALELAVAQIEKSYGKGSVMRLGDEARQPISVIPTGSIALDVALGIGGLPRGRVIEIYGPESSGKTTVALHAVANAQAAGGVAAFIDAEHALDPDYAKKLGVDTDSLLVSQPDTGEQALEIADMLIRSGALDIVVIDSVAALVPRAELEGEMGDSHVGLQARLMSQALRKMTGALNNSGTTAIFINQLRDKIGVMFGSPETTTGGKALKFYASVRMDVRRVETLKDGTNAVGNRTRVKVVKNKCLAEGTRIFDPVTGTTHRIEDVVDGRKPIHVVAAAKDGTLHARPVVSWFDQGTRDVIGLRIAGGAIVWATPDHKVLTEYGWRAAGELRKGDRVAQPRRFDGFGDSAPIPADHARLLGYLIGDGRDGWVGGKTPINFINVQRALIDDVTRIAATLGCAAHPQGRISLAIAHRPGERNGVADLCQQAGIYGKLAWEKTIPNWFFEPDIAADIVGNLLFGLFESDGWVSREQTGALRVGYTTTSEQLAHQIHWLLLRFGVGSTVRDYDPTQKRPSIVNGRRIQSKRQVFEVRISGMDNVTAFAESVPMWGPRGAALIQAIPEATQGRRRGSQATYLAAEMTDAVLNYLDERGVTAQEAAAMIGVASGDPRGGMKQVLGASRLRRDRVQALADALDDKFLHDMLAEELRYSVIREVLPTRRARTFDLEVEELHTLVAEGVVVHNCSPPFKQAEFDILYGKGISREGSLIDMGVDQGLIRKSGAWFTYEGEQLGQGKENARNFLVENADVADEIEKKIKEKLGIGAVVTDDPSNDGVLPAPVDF
Briefly: Fluorescence Cell-Free Homogeneous Dose Retest to Identify Inhibitors of RecA-Intein Splicing Activity. [Related pubchem assays (depositor defined):AID2097, AID2223, AID489010, AID492950]. Format: functional.

A further assay deals with Large T antigen (Simian virus 40, UniProt P03070). In kind it is functional, Betapolyomavirus macacae.
Chain of Large T antigen (P03070 whole entry): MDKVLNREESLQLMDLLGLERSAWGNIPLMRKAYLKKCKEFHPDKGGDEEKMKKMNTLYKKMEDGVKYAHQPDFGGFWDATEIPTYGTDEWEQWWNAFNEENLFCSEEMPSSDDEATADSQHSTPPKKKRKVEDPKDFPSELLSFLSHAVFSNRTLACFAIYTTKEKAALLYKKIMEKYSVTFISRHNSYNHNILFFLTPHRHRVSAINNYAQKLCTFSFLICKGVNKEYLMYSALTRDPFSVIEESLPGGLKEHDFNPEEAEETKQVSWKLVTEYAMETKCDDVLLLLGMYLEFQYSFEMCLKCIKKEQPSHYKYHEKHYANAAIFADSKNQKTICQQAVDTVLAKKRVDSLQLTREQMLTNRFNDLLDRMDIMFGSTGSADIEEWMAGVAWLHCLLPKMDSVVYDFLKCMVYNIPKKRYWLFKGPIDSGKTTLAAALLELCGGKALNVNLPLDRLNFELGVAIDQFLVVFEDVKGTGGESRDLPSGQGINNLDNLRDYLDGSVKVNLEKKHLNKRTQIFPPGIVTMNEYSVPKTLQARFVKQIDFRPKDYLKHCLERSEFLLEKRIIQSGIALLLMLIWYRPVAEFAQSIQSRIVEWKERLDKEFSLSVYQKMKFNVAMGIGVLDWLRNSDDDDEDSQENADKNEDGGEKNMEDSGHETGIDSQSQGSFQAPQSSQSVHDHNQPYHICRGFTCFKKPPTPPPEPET
Assay [3] in a line: NIH-3T3 fibroblast cytotoxicity, dose response, cytotoxicity control, cell-based, fluorescence, Alamar Blue, secondary assay (AID 2327).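 Note: NIH-3T3 mouse fibroblasts cultured with fluconazole at 8 µg/mL.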 Format: functional. Background: Resazurin is reduced to fluorescent resorufin, in cell work by metabolically active cells.
A short description of assay [4]: C. albicans growth with fluconazole, confirmation, fluorescence, retest (AID 2467). Format: functional, cell-based.
Another assay has as its target T3, Leucine aminopeptidase (Plasmodium falciparum 3D7, UniProt Q8IL11).
T3 sequence (Q8IL11 whole entry): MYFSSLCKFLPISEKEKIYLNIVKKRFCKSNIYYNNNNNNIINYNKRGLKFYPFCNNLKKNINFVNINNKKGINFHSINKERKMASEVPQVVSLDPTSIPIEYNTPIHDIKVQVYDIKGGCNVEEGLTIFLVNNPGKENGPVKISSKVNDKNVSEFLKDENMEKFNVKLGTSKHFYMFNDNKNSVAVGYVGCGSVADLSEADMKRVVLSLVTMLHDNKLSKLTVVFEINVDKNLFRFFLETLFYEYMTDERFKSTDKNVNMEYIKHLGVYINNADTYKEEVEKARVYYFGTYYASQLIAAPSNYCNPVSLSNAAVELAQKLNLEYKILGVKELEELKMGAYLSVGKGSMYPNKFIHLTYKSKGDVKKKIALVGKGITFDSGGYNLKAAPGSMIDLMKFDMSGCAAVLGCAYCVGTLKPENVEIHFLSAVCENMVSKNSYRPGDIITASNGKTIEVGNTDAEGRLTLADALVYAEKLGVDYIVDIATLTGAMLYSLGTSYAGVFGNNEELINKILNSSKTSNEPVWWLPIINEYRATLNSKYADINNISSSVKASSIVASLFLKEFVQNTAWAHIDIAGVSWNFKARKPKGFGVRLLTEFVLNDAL
Briefly: P. falciparum M17LAP inhibitors, primary screen, biochemical, fluorogenic H-Leu-NHMec substrate, 1536-well (AID 1619). In kind it is functional.

Assay [5] can be described thus: inhibitors of Bluetongue virus cytopathic effect, confirmation, arbovirus, BSR cells (AID 1250).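 Note: protection from viral cytopathic effect measured as cell viability by ATP luminescence.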 In kind it is functional. (Damage to the host cells serves as the signal in cytopathic effect assays.)
Assay [6] deals with T4, Rac GTPase-activating protein 1 (Homo sapiens, UniProt Q9H0H5).
T4 sequence (Q9H0H5 whole entry): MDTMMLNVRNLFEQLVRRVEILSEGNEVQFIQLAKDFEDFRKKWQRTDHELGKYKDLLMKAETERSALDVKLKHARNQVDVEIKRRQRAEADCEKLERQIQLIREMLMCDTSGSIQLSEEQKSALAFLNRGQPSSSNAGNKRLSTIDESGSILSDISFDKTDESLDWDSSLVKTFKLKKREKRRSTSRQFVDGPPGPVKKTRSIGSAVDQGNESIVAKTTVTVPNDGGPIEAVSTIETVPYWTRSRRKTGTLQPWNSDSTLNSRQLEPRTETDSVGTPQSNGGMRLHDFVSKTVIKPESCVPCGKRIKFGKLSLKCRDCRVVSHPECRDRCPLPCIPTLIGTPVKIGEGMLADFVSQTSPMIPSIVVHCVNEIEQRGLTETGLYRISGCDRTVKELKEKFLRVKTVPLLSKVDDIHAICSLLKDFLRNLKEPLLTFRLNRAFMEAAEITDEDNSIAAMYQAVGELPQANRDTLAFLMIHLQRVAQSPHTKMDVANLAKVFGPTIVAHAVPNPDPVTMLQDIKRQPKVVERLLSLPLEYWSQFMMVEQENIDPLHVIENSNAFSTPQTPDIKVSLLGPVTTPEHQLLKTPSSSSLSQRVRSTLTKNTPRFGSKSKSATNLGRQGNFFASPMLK
In words: MgcRacGAP GTPase-activating activity inhibitors, confirmation, biochemical, ADP Hunter fluorescence, primary and confirmatory (AID 624330). Format: functional.

The target in assay [7] is DNA dC->dU-editing enzyme APOBEC-3A (Homo sapiens, UniProt P31941). Briefly: Dose Response confirmation of small molecule APOBEC3A DNA Deaminase Inhibitors via a fluorescence-based single-stranded DNA deaminase assay. [Related pubchem assays (depositor defined):AID493011, AID493024]. Format: functional.
Chain of DNA dC->dU-editing enzyme APOBEC-3A (P31941 whole entry): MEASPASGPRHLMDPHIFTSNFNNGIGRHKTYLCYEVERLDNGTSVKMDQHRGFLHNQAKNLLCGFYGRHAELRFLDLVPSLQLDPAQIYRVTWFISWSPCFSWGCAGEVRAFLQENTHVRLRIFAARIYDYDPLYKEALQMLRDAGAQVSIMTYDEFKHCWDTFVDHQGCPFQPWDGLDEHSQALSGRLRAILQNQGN
The target in a further assay is T5, Aminopeptidase N (Plasmodium falciparum FcB1/Columbia, UniProt O96935).
T5 sequence (O96935 whole entry): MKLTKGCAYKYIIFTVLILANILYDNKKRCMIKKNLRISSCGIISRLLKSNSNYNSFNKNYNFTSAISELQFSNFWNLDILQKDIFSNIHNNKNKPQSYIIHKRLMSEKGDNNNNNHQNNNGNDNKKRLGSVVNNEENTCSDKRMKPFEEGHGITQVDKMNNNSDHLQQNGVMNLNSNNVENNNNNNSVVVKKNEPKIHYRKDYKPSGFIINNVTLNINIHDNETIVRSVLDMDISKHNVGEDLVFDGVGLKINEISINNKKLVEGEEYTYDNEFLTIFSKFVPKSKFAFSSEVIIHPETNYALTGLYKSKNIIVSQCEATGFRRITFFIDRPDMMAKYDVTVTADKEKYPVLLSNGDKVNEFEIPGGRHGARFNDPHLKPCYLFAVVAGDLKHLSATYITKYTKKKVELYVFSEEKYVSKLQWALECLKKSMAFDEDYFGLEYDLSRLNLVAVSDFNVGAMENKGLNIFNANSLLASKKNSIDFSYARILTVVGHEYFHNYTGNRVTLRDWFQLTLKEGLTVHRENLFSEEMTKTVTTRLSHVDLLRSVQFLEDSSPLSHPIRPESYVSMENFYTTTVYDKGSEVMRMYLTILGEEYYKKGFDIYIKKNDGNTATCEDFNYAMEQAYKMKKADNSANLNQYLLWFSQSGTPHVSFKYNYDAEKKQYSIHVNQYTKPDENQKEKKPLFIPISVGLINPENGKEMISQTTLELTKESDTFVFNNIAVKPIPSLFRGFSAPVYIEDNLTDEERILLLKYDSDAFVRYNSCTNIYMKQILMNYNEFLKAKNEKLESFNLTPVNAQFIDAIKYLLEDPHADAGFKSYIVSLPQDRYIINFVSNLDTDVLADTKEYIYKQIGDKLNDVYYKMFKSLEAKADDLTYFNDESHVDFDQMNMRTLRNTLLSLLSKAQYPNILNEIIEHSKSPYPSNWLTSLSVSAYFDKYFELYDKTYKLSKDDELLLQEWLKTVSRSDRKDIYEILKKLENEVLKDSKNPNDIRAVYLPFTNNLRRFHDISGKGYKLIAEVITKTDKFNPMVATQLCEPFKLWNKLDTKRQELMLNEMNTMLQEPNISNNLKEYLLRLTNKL
In words: P. falciparum M1AAP inhibitors, biochemical, fluorogenic H-Leu-NHMec substrate, 1536-well (AID 1445). Also on record: species or system Plasmodium falciparum 3D7, 3D7.

A further assay deals with Genome polyprotein (dengue virus type 2, UniProt P29990). Briefly: Dengue-2 NS5 methyltransferase inhibitors, primary screen, biochemical, confirmation dose response (AID 588689). In kind it is functional.
Chain of Genome polyprotein (P29990 2492-3391 limits assumed): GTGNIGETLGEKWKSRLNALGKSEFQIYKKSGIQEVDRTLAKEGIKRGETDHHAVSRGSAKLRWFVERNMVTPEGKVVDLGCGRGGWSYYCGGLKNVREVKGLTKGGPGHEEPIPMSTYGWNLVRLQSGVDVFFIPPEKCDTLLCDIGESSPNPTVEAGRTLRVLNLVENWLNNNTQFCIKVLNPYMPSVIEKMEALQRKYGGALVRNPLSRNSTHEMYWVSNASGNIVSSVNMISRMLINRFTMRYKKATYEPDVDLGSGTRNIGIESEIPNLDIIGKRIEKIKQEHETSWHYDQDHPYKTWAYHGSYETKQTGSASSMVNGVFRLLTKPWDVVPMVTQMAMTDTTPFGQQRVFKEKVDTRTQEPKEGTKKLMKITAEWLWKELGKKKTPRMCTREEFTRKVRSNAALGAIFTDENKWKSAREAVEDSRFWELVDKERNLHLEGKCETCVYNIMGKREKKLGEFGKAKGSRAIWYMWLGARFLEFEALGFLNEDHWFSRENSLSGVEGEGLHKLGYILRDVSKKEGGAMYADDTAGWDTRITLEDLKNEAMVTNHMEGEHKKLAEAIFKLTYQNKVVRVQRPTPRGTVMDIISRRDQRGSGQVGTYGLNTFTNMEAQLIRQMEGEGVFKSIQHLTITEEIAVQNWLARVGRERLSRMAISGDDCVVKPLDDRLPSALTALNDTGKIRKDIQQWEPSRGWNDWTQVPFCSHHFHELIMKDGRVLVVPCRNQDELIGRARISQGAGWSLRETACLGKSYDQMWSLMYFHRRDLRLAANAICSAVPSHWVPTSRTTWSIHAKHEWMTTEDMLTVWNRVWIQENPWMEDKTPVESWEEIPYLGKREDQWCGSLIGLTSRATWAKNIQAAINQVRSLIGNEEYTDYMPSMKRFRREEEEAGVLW
The next assay deals with Cytochrome P450 2D6 (Homo sapiens, UniProt P10635).
Chain of Cytochrome P450 2D6 (P10635 whole entry): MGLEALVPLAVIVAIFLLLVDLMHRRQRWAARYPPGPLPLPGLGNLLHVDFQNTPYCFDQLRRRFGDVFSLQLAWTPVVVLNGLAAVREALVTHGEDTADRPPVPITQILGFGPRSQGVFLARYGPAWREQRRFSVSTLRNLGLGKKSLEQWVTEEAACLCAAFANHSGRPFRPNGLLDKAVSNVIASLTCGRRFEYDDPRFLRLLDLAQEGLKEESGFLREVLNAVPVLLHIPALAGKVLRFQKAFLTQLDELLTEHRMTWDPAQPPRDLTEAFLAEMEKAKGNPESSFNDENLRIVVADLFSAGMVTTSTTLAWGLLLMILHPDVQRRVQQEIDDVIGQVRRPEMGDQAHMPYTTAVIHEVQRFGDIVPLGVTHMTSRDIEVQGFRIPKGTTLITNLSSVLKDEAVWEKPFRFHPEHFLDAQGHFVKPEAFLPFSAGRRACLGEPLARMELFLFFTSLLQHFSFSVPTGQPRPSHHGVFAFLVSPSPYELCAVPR
A further assay has as its target T6, Cytochrome P450 1A2 (Homo sapiens, UniProt P05177).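 Note: PubChem cytochrome P450 panel assay, CYP1A2 panel member.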
T6 sequence (P05177 whole entry): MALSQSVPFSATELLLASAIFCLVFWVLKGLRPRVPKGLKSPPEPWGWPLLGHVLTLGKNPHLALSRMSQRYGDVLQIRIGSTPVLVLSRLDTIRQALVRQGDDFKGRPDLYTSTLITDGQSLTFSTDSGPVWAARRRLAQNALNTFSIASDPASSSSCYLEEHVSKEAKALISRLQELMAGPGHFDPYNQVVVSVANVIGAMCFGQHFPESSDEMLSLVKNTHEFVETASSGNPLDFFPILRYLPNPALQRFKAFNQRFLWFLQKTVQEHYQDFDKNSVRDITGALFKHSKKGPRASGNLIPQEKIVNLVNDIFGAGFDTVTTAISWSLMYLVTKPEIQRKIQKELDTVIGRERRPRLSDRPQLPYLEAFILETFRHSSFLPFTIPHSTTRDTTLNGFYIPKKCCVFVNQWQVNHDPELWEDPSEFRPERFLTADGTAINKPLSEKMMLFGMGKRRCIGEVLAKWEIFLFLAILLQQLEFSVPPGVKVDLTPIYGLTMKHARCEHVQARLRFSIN

By CC50 is commonly meant the concentration giving 50% cytotoxicity. What is called IC50 is the concentration that gives 50% inhibition. By AC50 is commonly meant the midpoint of the concentration-response curve, whichever way the signal moves. In general, EC50 refers to the concentration that produces a half-maximal response. As to `COC(=O)c1ccccc1Sc1ncnc2onc(C)c12`, the CC50 in assay [1] is > 40 µM (active). Besides, the IC50 in the assay “cells” is 10.9 µM (active). Moreover, the AC50 in assay [2] was 12.4 µM (active). The EC50 at Protein RecA is 9.04 µM (active).

With `COc1cc(/C=N/Nc2ccnc(O)n2)ccc1O`, the concentration for half-maximal inhibition (IC50) on Large T antigen is 6.16 µM (active).

For the compound `O=C1NC2(CCC3(CC2)OCCO3)NN1c1ccc(Cl)cc1`, the EC50 in [3] was > 150 µM (inactive); in assay [4], 1.64 µM (active). For the same compound, the CC50 in assay [1] is > 40 µM (active).

As to `CCOC(=O)CC(=O)CSc1nc(O)c2sc(=S)n(-c3ccc(OCC)cc3)c2n1`, the IC50 on Leucine aminopeptidase was 26.4 µM (active); in assay [5] it was 21.6 µM (active).

`COc1cc(/C=C2\C(=O)NC(=O)N(CCc3ccc(F)cc3)C2=O)ccc1O`: the IC50 at Leucine aminopeptidase was 15.8 µM (active); on Large T antigen it was 20 µM (active).

In the case of `CN(C)c1ccc(NC(=O)CN2C(=O)CN=C(c3ccccc3)c3ccccc32)cc1`, the results for the IC50 (on Large T antigen; in assay [6]) were 11.9 µM (active) and 72 µM (active), respectively.

Consider `Cc1nc(N)sc1N=Nc1c(C)n(C)n(-c2ccccc2)c1=O`, for which the IC50 on Large T antigen was 17.3 µM (active).

With `CCC(Oc1ccccc1OC)C(=O)Nc1ccc2c(c1)OCCO2` (stereo not drawn), the IC50 in assay [7] was 6.09 µM (active).

Consider `O=C1NC(=O)N(Cc2ccccc2)C(=O)/C1=C/NNC(=O)c1ccccc1O`, for which the concentration for half-maximal inhibition (IC50) at Leucine aminopeptidase was 62.3 µM (active); on Aminopeptidase N, 17.3 µM (active); in [5], 97.4 µM (active).

Regarding `O=C1Nc2ccc(F)cc2C12Nc1ccccc1-c1nnc(SCc3ccccc3F)nc1O2` (stereo not drawn), the figures for the IC50 on Aminopeptidase N and on Genome polyprotein were 68.4 µM (active) and 30.8 µM (active), respectively. In addition, the half-maximal activity concentration (AC50) on Cytochrome P450 2D6 was 14.1 µM (inconclusive); on Cytochrome P450 1A2, 10 µM (inconclusive).
